Test results taken from PubChem BioAssay (NCI).
Values joined by “and” are separate entries in the source; they are usually repeats but may differ in a detail not shown here. Equal entries are not always repeated.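 Values below derive from 48-hour exposures of cells grown in 96-well plates, with endpoints linearly interpolated between the two concentrations bracketing the appropriate inhibition level. GI50: concentration for 50% inhibition of growth. TGI: total growth inhibition.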

How the values were obtained:
Assay in all cases: NCI-60 cell line screen, 48 h
DLD-1 colon = test system: DLD-1 colon
KM12 colon = test system: KM12 colon
LXFL 529 NSCLC = test system: LXFL 529 NSCLC
MALME-3M melanoma = test system: MALME-3M melanoma
OVCAR-3 ovarian = test system: OVCAR-3 ovarian
SF-295 CNS = test system: SF-295 CNS
SK-MEL-2 melanoma = test system: SK-MEL-2 melanoma
A498 renal = test system: A498 renal
DMS 273 small cell lung = test system: DMS 273 small cell lung
RPMI-8226 leukemia = test system: RPMI-8226 leukemia
MDA-MB-435 = test system: MDA-MB-435

Row | SMILES | TGI (DLD-1 colon) | TGI (KM12 colon) | TGI (LXFL 529 NSCLC) | TGI (MALME-3M melanoma) | TGI (OVCAR-3 ovarian) | TGI (SF-295 CNS) | TGI (SK-MEL-2 melanoma) | TGI (A498 renal) | TGI (DMS 273 small cell lung) | TGI (RPMI-8226 leukemia) | GI50 (KM12 colon) | GI50 (MDA-MB-435) | TGI (MDA-MB-435) | GI50 (OVCAR-3 ovarian) | GI50 (RPMI-8226 leukemia) | GI50 (SF-295 CNS) | GI50 (A498 renal) | GI50 (MALME-3M melanoma) | GI50 (SK-MEL-2 melanoma)
1 | O=C(N/C(=C\c1ccccc1Cl)c1nc2ccccc2[nH]1)c1ccccc1 | > 100 µM | > 100 µM | > 100 µM | 74.8 µM | > 100 µM | 43.4 µM | 51.8 µM |  |  |  |  |  |  |  |  |  |  |  | 
2 | CC(C)N(C(=O)C12C3C4C1C1C2C3C41I)C(C)C (configuration not stated) |  | > 100 µM | > 100 µM | > 100 µM | > 100 µM | > 100 µM |  | > 100 µM | > 100 µM |  |  |  |  |  |  |  |  |  | 
3 | COC1OC(CBr)C(OC(=O)c2ccccc2)C(OS(=O)(=O)c2ccc(C)cc2)C1Br (configuration not stated) |  | > 100 µM | > 100 µM | > 100 µM | > 100 µM | > 100 µM | > 100 µM | > 100 µM | > 100 µM | > 100 µM |  |  |  |  |  |  |  |  | 
4 | O=C(N/N=C(/c1nc2ccc([N+](=O)[O-])cc2[nH]c1=O)C(O)c1ccc([N+](=O)[O-])cc1)c1ccncc1 (configuration not stated) | > 100 µM | > 100 µM | > 100 µM | > 100 µM |  | > 100 µM | > 100 µM | > 100 µM |  | > 100 µM |  |  |  |  |  |  |  |  | 
5 | COc1ccc2nc3cc([N+](=O)[O-])ccc3c(NNc3ccccc3)c2c1 |  | 19.6 µM and 32.4 µM |  | 43.4 µM | 21.9 µM and > 100 µM | 25.2 µM and > 100 µM | > 78.9 µM | 13.2 µM |  | 46.7 µM and > 73.3 µM | 6.25 µM | 13.4 µM | 35.3 µM and > 100 µM | 10.2 µM | 4.8 µM | 6.73 µM |  |  | 
6 | NC(Cc1c[nH]c2ccc(F)cc12)C(=O)O (configuration not stated) |  | > 2500 µM |  | 1130 µM | > 2500 µM | 1500 µM | > 2500 µM | 1630 µM |  | > 2500 µM | 760 µM | 785 µM | > 2500 µM | 724 µM | 1240 µM | 609 µM | 580 µM | 490 µM | 2250 µM
7 | CC(C)(C)NC(=O)[C@H]1CC[C@H]2[C@@H]3CC[C@H]4NC(=O)C=C[C@]4(C)[C@H]3CC[C@]12C |  | > 100 µM |  | > 100 µM | > 100 µM | > 100 µM | > 100 µM | > 100 µM |  | > 100 µM | > 100 µM | > 100 µM | > 100 µM | > 100 µM | 42.8 µM and 67.2 µM | > 100 µM | 54.2 µM | 74.5 µM and > 100 µM | 
8 | C[C@@H](NC(=O)c1ncnc(N)c1Cl)c1ncc(C(=O)Nc2cc(C(F)(F)F)c(Cl)cn2)s1 |  | > 84.6 µM |  | 0.624 µM | 70 µM | 34.7 µM | 8.04 µM | 24.7 µM |  | 49 µM | 21.3 µM | 2.27 µM | 34.3 µM | 24.6 µM | 15.2 µM | 13.6 µM | 7.94 µM | 0.135 µM | 2.08 µM
9 | O=C(CCl)Nc1cc(Cl)c(Cl)cc1Cl |  | 0.83 µM |  | 2.88 µM | 3.31 µM | > 10 µM | 3.44 µM | > 10 µM |  | > 10 µM |  |  | 2.77 µM |  |  |  |  |  | 
10 | OCc1ccc(N2CCc3cc(F)ccc3C2)cc1Cl |  | 27.3 µM |  | 31.8 µM | 0.288 µM | 13.9 µM | 17.8 µM | 0.0756 µM |  | 22.2 µM | 13.2 µM | 13.1 µM | 27.6 µM | 0.0518 µM | 0.244 µM | 0.0449 µM | 0.0206 µM | 16.6 µM | 0.375 µM
11 | CCN(CC)CCC(CNc1ccnc2cc(Cl)ccc12)c1ccccc1 (configuration not stated) |  | 75.1 µM |  | 3.88 µM | > 100 µM | 4.79 µM | 4.06 µM | 13 µM |  | 13.5 µM | 7.29 µM | 2.01 µM | 5.02 µM | 14.9 µM | 3.11 µM | 1.83 µM | 2.41 µM | 2.05 µM | 1.95 µM
12 | COC1=C(OC)C(=O)C(Sc2ccc3ccccc3c2)=CC1=O |  | 21.2 µM |  | 28.4 µM | 32.7 µM | 23.8 µM | 31.4 µM | 29.6 µM |  | 5.78 µM |  |  | 29.8 µM |  |  |  |  |  | 
13 | CCOC(=O)c1c(NC(=O)c2ccccc2)sc2c3c(ccc12)OCN(C)C3 |  | 3.3 µM |  | 3.43 µM | 3.26 µM | 3.23 µM | 4.02 µM | 3.21 µM |  | 3.87 µM | 1.75 µM | 1.64 µM | 3.02 µM | 1.79 µM | 1.69 µM | 1.74 µM | 1.65 µM | 1.78 µM | 2.07 µM
14 | Nc1nnnc2nc[nH]c12 |  | > 100 µM |  | 7.06 µM | > 100 µM | > 29.8 µM | 42.4 µM | 15.3 µM |  | > 85.8 µM | 4.11 µM | 0.542 µM | 2.57 µM | 2.53 µM | 0.245 µM | 0.78 µM | 1.87 µM | 0.759 µM | 1.06 µM
15 | O=C1c2cccnc2C(=O)c2c1c(C(=O)NCCn1ccnc1)c1ccccn21 |  | 19 µM |  | 2.14 µM | 7.43 µM | 14 µM | 8.3 µM | 17.6 µM |  | 88.4 µM | 2.96 µM | 1.71 µM | 3.13 µM | 2.28 µM | 5.95 µM | 2.66 µM | 5.43 µM | 0.722 µM | 2.82 µM
